Here are results for six compounds from patent US20250084039A1, “4-SUBSTITUTED AMINOISOQUINOLINE DERIVATIVES” (Purdue Research Foundation, priority 2016, published 2025).

SMILES strings stand for the structures. Several values for one entry are separate records, joined by “and”; a condition that tells them apart may be missing. Equal entries are not always repeated. Where two headings read alike, the source gives them in different places.

Experiment [1] has as its target ABL1 phosphorylated (Homo sapiens (Human), UniProt P00519). Put plainly: DiscoverX Kd Elect binding.
Experiment [2] addresses PDGFRa (Homo sapiens (Human), UniProt P16234). The experiment can be described thus: Reaction Biology HotSpot kinase assay. Format: biochemical. The note with it: 500 nM compound; for inhibition at 0.5 µM: read-out: Percentage kinase inhibition PDGFRa. The gist of the method: (§1)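 Radiometric HotSpot format: compound at single dose 500 nM preincubated 20 min with kinase and substrate in pH 7.5 HEPES buffer (MgCl2, EGTA, Brij35, BSA, Na3VO4, DTT, 1% DMSO). Reaction with 100 μM total ATP including [γ-33P]ATP, 2 h RT, P81 filter capture; values as % remaining activity versus DMSO.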

The target of experiment [3] is MKK7 (Homo sapiens (Human), UniProt O14733). The experiment can be described thus: Reaction Biology HotSpot kinase assay. The format is biochemical. The note with it: 500 nM compound; for inhibition at 0.5 µM: read-out: Percentage kinase inhibition MKK7. The procedure, abridged: as §1
Experiment [4] deals with PKD2/PRKD2 (Homo sapiens (Human), UniProt Q9BZL6). Put plainly: Reaction Biology HotSpot kinase assay. The format is biochemical. The settings on record: 500 nM compound; for inhibition at 0.5 µM: read-out: Percentage kinase inhibition PKD2/PRKD2. The procedure, abridged: as §1
The target in experiment [5] is PDK1/PDHK1 (Homo sapiens (Human), UniProt Q15118). The experiment can be described thus: Reaction Biology HotSpot kinase assay. The format is biochemical. The note with it: 500 nM compound; for inhibition at 0.5 µM: read-out: Percentage kinase inhibition PDK1/PDHK1. The gist of the method: as §1
Experiment [6] concerns the target BLK (Homo sapiens (Human), UniProt P51451). The experiment can be described thus: Reaction Biology HotSpot kinase assay. Format: biochemical. The settings on record: 500 nM compound; for inhibition at 0.5 µM: read-out: Percentage kinase inhibition BLK. The procedure, abridged:
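Phosphotransfer from [γ-33P]ATP was quantified after filter binding on P81 paper. Conditions: 20 mM HEPES pH 7.5, 10 mM MgCl2, 0.1 mM Na3VO4, 2 mM DTT, 0.02 mg/mL BSA; ATP 100 μM final; 2 h at room temperature. Compound was dosed at 500 nM.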

Experiment [7] deals with CDK9/cyclin T2 (Homo sapiens (Human), UniProt P50750). Put plainly: Reaction Biology HotSpot kinase assay. The format is biochemical. The settings on record: 500 nM compound; for inhibition at 0.5 µM: read-out: Percentage kinase inhibition CDK9/cyclin T2. The gist of the method:
as §1

The target of experiment [8] is EPHB2 (Homo sapiens (Human), UniProt P29323). Put plainly: Reaction Biology HotSpot kinase assay. The format is biochemical. The note with it: 500 nM compound; for inhibition at 0.5 µM: read-out: Percentage kinase inhibition EPHB2. The procedure, abridged: as §1
For experiment [9], the target named is MEK1 (Homo sapiens (Human), UniProt Q02750). The experiment can be described thus: Reaction Biology HotSpot kinase assay. The settings on record: 500 nM compound; for inhibition at 0.5 µM: read-out: Percentage kinase inhibition MEK1. Format: biochemical. The gist of the method:
as §1

Experiment [10] deals with LRRK2 (Homo sapiens (Human), UniProt Q5S007). Put plainly: Reaction Biology HotSpot kinase assay. Format: biochemical. The settings on record: 500 nM compound; for inhibition at 0.5 µM: read-out: Percentage kinase inhibition LRRK2. The procedure, abridged:
as §1

Experiment [11] addresses MELK (Homo sapiens (Human), UniProt Q14680). The experiment can be described thus: Reaction Biology HotSpot kinase assay. Format: biochemical. The settings on record: 500 nM compound; for inhibition at 0.5 µM: read-out: Percentage kinase inhibition MELK. The procedure, abridged: as §1
The target in experiment [12] is ERK1 (Homo sapiens (Human), UniProt P27361). The experiment can be described thus: Reaction Biology HotSpot kinase assay. The format is biochemical. The note with it: 500 nM compound; for inhibition at 0.5 µM: read-out: Percentage kinase inhibition ERK1. The gist of the method: as §1
Sequence of ERK1 (P27361 whole entry): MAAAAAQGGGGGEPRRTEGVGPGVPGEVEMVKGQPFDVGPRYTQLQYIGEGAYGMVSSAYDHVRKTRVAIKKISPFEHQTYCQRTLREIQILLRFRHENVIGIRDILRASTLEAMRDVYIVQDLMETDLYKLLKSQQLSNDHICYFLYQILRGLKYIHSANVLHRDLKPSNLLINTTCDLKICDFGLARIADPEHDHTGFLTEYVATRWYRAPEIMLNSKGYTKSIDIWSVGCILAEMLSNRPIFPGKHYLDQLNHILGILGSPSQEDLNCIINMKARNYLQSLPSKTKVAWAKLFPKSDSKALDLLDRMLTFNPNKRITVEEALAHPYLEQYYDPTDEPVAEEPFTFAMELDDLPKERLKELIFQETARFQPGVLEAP
For experiment [13], the target named is IR (Homo sapiens (Human), UniProt P06213). The experiment can be described thus: Reaction Biology HotSpot kinase assay. Format: biochemical. The settings on record: 500 nM compound; for inhibition at 0.5 µM: read-out: Percentage kinase inhibition IR. The procedure, abridged:
as §1

Experiment [14] has as its target EPHA3 (Homo sapiens (Human), UniProt P29320). The experiment can be described thus: Reaction Biology HotSpot kinase assay. The format is biochemical. The note with it: 500 nM compound; for inhibition at 0.5 µM: read-out: Percentage kinase inhibition EPHA3. The gist of the method:
as §1

Experiment [15] addresses HIPK1 (Homo sapiens (Human), UniProt Q86Z02). Put plainly: Reaction Biology HotSpot kinase assay. The format is biochemical. The settings on record: 500 nM compound; for inhibition at 0.5 µM: read-out: Percentage kinase inhibition HIPK1. The procedure, abridged: as §1
Experiment [16] addresses ZAP70 (Homo sapiens (Human), UniProt P43403). Put plainly: Reaction Biology HotSpot kinase assay. Format: biochemical. The note with it: 500 nM compound; for inhibition at 0.5 µM: read-out: Percentage kinase inhibition ZAP70. The gist of the method:
as §1

The target in experiment [17] is FRK/PTK5 (Homo sapiens (Human), UniProt P42685). Put plainly: Reaction Biology HotSpot kinase assay. The settings on record: 500 nM compound; for inhibition at 0.5 µM: read-out: Percentage kinase inhibition FRK/PTK5. The format is biochemical. The procedure, abridged: as §1
In experiment [18] the target is CDK1/cyclin E (Homo sapiens (Human), UniProt P06493). The experiment can be described thus: Reaction Biology HotSpot kinase assay. Format: biochemical. The settings on record: 500 nM compound; for inhibition at 0.5 µM: read-out: Percentage kinase inhibition CDK1/cyclin E. The procedure, abridged: as §1
Sequence of CDK1/cyclin E (P06493 whole entry): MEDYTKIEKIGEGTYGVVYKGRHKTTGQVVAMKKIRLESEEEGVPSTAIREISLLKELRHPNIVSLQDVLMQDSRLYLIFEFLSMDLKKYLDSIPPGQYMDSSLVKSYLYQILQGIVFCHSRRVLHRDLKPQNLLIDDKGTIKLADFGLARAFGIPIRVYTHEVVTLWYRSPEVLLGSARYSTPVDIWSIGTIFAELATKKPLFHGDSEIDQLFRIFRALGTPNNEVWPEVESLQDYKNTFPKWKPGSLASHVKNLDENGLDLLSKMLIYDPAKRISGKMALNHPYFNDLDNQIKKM
Sequence of CDK1/cyclin E (P24864 whole entry partner): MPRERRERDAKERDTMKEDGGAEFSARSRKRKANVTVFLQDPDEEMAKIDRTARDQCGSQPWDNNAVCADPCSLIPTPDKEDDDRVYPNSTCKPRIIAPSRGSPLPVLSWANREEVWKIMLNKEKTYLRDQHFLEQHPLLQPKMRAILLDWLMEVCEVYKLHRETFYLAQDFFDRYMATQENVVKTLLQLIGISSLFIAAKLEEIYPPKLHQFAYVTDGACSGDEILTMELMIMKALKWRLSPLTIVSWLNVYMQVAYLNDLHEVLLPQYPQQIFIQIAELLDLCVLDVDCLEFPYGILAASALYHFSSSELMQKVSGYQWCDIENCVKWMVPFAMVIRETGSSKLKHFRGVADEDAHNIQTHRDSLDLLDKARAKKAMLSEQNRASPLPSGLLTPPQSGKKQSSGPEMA
The target in experiment [19] is FMS (Homo sapiens (Human), UniProt P07333). Put plainly: Reaction Biology HotSpot kinase assay. Format: biochemical. The settings on record: 500 nM compound; for inhibition at 0.5 µM: read-out: Percentage kinase inhibition FMS. The procedure, abridged:
as §1

Experiment [20] concerns the target FLT3 (Homo sapiens (Human), UniProt P36888). The experiment can be described thus: DiscoverX Kd Elect binding. An excerpt:
(§2) Although the current drugs on the market or in clinical trials are relatively successful in killing the AML leukemia cells, they currently are unable to deal with secondary mutations that occur after TKI treatment, such as FLT3 ([…]).
HCK is expressed more in human primary leukemic stem cells than in human normal hematopoietic stem cells. […] Other protein kinases such as SYK, BRAF, p38 (p38MAPK), PDGFRα/β, FGFR1, RET, FLT4, Tie2 have also been linked to leukemia. […] (Table 9). The inhibition of the Src-kinase family could be important clinically because these kinases are downstream of FLT3. In the event of FLT3 mutation, the inhibition of the Src-family kinases could still lead to proliferation inhibition.

Experiment [21] addresses ABL1 non-phosphorylated (Homo sapiens (Human), UniProt P00519). Put plainly: DiscoverX Kd Elect binding.
Experiment [22] concerns the target FLT3 (D835V) (Homo sapiens (Human), UniProt P36888, D835V). The experiment can be described thus: DiscoverX Kd Elect binding.
Text: as §2

For experiment [23], the target named is FLT3 (ITD) (Homo sapiens, UniProt P36888, ITD). Put plainly: DiscoverX Kd Elect binding. The settings on record: Kd FLT3 (ITD).
Text: as §2

The test system of experiment [24] is MV4-11. Put plainly: IC50 determination (proliferation assay, CellTiter-Blue). Format: cell-based. The gist of the method: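 MOLM14 and MV4-11 cells seeded about 18 h before compound addition (DMSO-diluted), then 72 h exposure.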

Sequence of CDK9/cyclin T2 (P50750 whole entry): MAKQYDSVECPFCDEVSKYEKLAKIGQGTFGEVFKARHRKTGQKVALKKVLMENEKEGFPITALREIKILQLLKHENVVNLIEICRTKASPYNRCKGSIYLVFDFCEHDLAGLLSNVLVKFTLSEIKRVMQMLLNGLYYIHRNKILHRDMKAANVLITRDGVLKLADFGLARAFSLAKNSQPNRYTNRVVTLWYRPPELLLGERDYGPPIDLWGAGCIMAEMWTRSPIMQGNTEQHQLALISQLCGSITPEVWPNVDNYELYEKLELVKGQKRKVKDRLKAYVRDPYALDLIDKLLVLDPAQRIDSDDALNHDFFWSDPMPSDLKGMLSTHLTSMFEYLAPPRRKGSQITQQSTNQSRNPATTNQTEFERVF
Sequence of CDK9/cyclin T2 (O60583 whole entry partner): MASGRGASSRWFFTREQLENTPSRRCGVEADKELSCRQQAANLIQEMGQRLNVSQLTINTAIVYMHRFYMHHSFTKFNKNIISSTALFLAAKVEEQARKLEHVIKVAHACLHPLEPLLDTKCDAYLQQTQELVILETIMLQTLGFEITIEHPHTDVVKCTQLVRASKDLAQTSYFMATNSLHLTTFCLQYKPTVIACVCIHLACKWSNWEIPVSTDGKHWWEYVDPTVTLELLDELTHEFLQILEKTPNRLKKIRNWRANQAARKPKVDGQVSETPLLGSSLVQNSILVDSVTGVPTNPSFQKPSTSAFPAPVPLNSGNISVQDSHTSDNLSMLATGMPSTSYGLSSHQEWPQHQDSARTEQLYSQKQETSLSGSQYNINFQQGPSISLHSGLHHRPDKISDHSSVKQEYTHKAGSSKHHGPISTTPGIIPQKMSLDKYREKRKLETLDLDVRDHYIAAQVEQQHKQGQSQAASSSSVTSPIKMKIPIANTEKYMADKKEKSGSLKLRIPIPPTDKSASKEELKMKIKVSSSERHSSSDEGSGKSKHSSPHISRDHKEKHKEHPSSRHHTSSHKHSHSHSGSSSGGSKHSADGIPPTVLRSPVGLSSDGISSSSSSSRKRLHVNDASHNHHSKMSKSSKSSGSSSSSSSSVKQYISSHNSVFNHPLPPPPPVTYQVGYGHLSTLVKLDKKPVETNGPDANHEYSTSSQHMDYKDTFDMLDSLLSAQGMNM
Sequence of MELK (Q14680 whole entry): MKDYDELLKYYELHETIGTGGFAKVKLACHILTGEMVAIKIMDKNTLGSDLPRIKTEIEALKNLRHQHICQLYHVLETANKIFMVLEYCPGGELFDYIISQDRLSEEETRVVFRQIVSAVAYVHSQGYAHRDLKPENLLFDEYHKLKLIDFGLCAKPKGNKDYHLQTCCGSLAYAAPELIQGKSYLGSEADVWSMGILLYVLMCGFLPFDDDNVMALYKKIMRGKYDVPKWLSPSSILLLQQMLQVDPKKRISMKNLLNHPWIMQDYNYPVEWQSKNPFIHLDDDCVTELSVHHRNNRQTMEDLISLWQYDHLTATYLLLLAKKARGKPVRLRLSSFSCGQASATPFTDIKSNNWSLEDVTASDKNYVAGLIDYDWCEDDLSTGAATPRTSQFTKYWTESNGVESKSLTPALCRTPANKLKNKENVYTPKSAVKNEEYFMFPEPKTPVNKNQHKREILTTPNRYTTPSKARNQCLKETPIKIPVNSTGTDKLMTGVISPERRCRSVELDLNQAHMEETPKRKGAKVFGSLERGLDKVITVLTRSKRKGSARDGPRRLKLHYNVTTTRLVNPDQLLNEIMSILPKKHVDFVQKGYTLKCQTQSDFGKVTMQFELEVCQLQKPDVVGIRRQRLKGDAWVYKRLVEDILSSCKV
Sequence of BLK (P51451 whole entry): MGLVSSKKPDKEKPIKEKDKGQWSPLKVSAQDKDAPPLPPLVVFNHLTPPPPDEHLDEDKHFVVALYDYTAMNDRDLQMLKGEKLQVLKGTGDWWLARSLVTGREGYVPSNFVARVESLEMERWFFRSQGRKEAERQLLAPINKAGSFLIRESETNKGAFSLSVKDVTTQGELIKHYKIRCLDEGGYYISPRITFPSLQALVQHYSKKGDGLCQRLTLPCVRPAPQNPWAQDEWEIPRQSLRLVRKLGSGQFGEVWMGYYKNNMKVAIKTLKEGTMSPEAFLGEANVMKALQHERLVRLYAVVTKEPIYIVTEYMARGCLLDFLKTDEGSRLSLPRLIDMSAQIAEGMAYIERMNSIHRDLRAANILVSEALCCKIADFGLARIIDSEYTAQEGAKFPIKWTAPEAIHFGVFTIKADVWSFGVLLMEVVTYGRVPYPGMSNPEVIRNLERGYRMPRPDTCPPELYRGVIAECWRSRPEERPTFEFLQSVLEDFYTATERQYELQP
Sequence of EPHA3 (P29320 21-983): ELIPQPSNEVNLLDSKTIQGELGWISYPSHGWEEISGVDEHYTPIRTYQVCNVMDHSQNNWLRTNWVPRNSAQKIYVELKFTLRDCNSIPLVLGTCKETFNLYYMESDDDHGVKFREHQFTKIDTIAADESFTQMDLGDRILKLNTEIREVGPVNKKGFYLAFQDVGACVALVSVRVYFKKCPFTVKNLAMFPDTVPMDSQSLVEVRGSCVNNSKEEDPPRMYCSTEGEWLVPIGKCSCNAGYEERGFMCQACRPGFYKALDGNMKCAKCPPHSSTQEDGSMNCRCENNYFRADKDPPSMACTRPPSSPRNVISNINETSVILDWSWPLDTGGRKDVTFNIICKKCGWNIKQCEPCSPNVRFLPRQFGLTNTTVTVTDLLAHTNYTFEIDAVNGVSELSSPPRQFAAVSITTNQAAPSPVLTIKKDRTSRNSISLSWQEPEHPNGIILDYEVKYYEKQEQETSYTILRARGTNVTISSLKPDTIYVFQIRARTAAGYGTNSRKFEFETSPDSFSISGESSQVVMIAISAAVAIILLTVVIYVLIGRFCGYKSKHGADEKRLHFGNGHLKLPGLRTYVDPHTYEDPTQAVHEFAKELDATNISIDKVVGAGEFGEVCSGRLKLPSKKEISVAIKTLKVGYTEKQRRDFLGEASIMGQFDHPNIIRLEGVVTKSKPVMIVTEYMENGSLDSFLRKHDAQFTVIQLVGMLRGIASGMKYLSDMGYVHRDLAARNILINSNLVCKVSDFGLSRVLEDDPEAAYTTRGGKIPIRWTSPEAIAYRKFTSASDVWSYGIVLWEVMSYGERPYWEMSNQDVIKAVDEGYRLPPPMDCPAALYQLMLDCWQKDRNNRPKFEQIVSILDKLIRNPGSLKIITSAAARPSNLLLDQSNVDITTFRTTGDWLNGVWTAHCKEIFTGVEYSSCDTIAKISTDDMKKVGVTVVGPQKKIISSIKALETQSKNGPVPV
Sequence of MEK1 (Q02750 whole entry): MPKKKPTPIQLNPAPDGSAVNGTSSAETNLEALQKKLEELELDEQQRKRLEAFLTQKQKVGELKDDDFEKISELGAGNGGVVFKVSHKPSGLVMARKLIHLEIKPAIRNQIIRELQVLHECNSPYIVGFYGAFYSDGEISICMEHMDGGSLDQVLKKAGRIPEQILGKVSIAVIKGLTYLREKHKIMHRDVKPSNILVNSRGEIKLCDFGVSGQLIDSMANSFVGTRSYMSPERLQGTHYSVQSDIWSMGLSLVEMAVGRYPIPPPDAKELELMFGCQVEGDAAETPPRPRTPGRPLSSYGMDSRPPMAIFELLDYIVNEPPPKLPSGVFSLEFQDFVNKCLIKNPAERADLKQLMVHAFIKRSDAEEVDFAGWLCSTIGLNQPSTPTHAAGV

In the case of `Cc1ccc(C(=O)Nc2ccc(CN3CCN(C)CC3)c(C(F)(F)F)c2)cc1C#Cc1c(N)ncc2ccc(Cl)cc12` [HSN286], the Kd in [1] was 7.9 nM; in [20] it was 6.5 nM and 7.2 nM; in [21] it was 7.2 nM; in [22], 120 nM; in [23] it was 27.6 nM and 26 nM. The inhibition at 0.5 µM came out at 93% in [2]; 0% in experiment [3]; 7% in experiment [4]; 0% in experiment [5]; 100% in [6]; 0% in experiment [7]. Besides, the inhibition at 0.5 µM in experiment [8] is 96%; in experiment [9] it was 0%; in experiment [10], 6%; in experiment [11], 27%; in experiment [12] it was 0%; in experiment [13], 16%. The inhibition at 0.5 µM in [14] is 96%; in experiment [15], 0%; in experiment [16], 0%; in experiment [17] it was 95%; in experiment [18] it was 0%; in experiment [19], 99%.

For the compound `Cc1ccc(C(=O)Nc2ccc(CN3CCN(C)CC3)c(C(F)(F)F)c2)cc1C#Cc1cc(N)nc2ccccc12` [HSN285], the “proliferation inhibition in words, MV4-11 / AML” value in experiment [24] is on record as “neither potent inhibitors of FLT3 nor active against MV4-11 or MOLM-14”. The compound further returned an IC50 in [24] (Homo sapiens, MV4-11) of 721 ± 5.8 nM. In addition, the inhibition at 0.5 µM in experiment [2] is 30%; in experiment [8], 3%.

Compound `CN(C)CC(O)CNC(=O)c1ccc(C#Cc2c(N)ncc3ccc(Cl)cc23)cc1` (centres unmarked) [HSM1702] registered an IC50 in experiment [24] of 71 ± 1.1 nM. For the same compound, the “Percentage kinase inhibition PDGFRa” value in experiment [2] came out at 48%. Besides, in [3], the “Percentage kinase inhibition MKK7” value is 0%. In addition, the “Percentage kinase inhibition PKD2/PRKD2” value in experiment [4] turned out to be 6%. Besides, the “Percentage kinase inhibition PDK1/PDHK1” value in [5] came to 0%. The “Percentage kinase inhibition BLK” value in experiment [6] came out at 10%. In addition, the “Percentage kinase inhibition CDK9/cyclin T2” value in experiment [7] is recorded as 65%. For the same compound, the “Percentage kinase inhibition EPHB2” value in [8] is listed as 5%. The “Percentage kinase inhibition MEK1” value in experiment [9] is reported as 0%. Moreover, in experiment [10], the “Percentage kinase inhibition LRRK2” value is reported as 40%. In [11], the “Percentage kinase inhibition MELK” value was determined as 12%. Further, in [12], the “Percentage kinase inhibition ERK1” value turned out to be 5%. Moreover, in experiment [13], the “Percentage kinase inhibition IR” value is listed as 9%. For the same compound, the “Percentage kinase inhibition EPHA3” value in [14] was 0%. For the same compound, the “Percentage kinase inhibition HIPK1” value in experiment [15] is 42%. For the same compound, the “Percentage kinase inhibition ZAP70” value in [16] amounted to 0%. For the same compound, the “Percentage kinase inhibition FRK/PTK5” value in [17] was 0%. Moreover, the “Percentage kinase inhibition CDK1/cyclin E” value in experiment [18] was determined as 13%. Also, the “Percentage kinase inhibition FMS” value in experiment [19] was determined as 35%.

`COc1cc2nc(N)nc(C#Cc3cc(C(=O)Nc4ccc(CN5CCN(C)CC5)c(C(F)(F)F)c4)ccc3C)c2cc1OC` [HSN325] yielded an IC50 in [24] (Homo sapiens, MV4-11) of 135 ± 5.87 nM. The inhibition at 0.5 µM in experiment [2] worked out at 53%; in experiment [3], 6%; in experiment [4] it was 0%; in [5], 1%; in experiment [6], 30%; in experiment [7], 0%. The inhibition at 0.5 µM in experiment [8] came out at 3%; in experiment [9], 2%; in [10], 0%; in experiment [11], 0%; in experiment [12] it was 0%; in [13], 9%. Also, the inhibition at 0.5 µM was found to be 6% in experiment [14]; 0% in [15]; 0% in [16]; 49% in [17]; 0% in experiment [18]; 93% in experiment [19].

Turning to `Cc1ccc(C(=O)Nc2ccc(CN3CCN(C)CC3)c(C(F)(F)F)c2)cc1C#Cc1cnc(N)c2ncccc12` [HSN356, 3-((8-amino-1,7-naphthyridin-5-yl)ethynyl)-4-methyl-N-(4-((4-methylpiperazin-1-yl)methyl)-3-(trifluoromethyl)phenyl)benzamide], the Kd in experiment [1] was 1.2 nM; in experiment [20], 1.3 nM; in [21], 2.5 nM; in experiment [22], 19 nM; in experiment [23], 6.7 nM. Further, in experiment [24], the “proliferation inhibition in words, MV4-11 / AML” value is on record as “potent proliferation inhibitors”. Also, the inhibition at 0.5 µM in experiment [2] amounted to 92%; in experiment [8] it was 100%.

For the compound `Cc1ccc(C(=O)Nc2ccc(CN3CCN(C)CC3)c(C(F)(F)F)c2)cc1C#Cc1cnc(N)c2ccccc12` [HSN334, 3-((1-aminoisoquinolin-4-yl)ethynyl)-4-methyl-N-(4-((4-methylpiperazin-1-yl)methyl)-3-(trifluoromethyl)phenyl)benzamide], the Kd came to 12 nM in experiment [1]; 5.1 nM in experiment [20]; 4.4 nM in experiment [21]; 120 nM in experiment [22]; 19 nM in [23]. The IC50 in experiment [24] was 1.38 ± 0.1 nM; in experiment [24] (Homo sapiens, MV4-11) it was under 1 nM. The “proliferation inhibition in words, MV4-11 / AML” value in experiment [24] is “potent proliferation inhibitors”. The inhibition at 0.5 µM amounted to 86% in experiment [2] and 98% in experiment [8].
